Measured values published in US20110312934A1, “2-ALKYL-6-CYCLOAMINO-3-(PYRIDIN-4-YL)IMIDAZO[1,2-B]-PYRIDAZINE DERIVATIVES, PREPARATION THEREOF, AND THERAPEUTIC APPLICATION THEREOF” (SANOFI-AVENTIS, priority 2008, published 2011).
Counter-ions that a name gives are not always drawn.

Compound	melting point
Cc1cc(-c2c(C)nc3ccc(N4C[C@@H]5C[C@@H]4CN5)nn23)ccn1 (as salt: HBr)	> 300 °C
Cc1cc(-c2c(C)nc3ccc(N4CCC5(CCCNC5)CC4)nn23)ccn1 (as salt: HCl)	> 295 °C
Cc1nc2ccc(N3CCC4(CC3)CNCCO4)nn2c1-c1ccncc1 (as salt: HCl)	> 255 °C
Cc1nc2ccc(N3CCC4(CC3)CNCCO4)nn2c1-c1ccnc(N)c1 (as salt: HCl)	> 300 °C
Cc1cc(-c2c(C)nc3ccc(N4CC5CNCC5C4)nn23)ccn1 (stereo not shown) (as salt: HCl) [Compound 67, 6-Hexahydropyrrolo[3,4-c]pyrrol-2(1H)-yl-2-methyl-3-(2-methylpyridin-4-yl)-imidazo[1,2-b]-pyridazine]	214 to 221 °C
Cc1nc2ccc(N3CCNCC3)nn2c1-c1ccnc(F)c1 [Compound 3, 3-(2-Fluoropyridin-4-yl)-2-methyl-6-piperazin-1-ylimidazo[1,2-b]pyridazine]	139 to 141 °C
CC(C)c1nc2ccc(N3CCNCC3)nn2c1-c1ccncc1 [Compound 9, 2-Isopropyl-6-piperazin-1-yl-3-pyridin-4-ylimidazo[1,2-b]pyridazine]	199 to 201 °C
c1cc(-c2c(C3CC3)nc3ccc(N4CCNCC4)nn23)ccn1 [Compound 11, 2-Cyclopropyl-6-piperazin-1-yl-3-pyridin-4-ylimidazo[1,2-b]pyridazine]	169 to 171 °C
CC(C)Cc1nc2ccc(N3CCNCC3)nn2c1-c1ccncc1 [Compound 16, 2-Isobutyl-6-piperazin-1-yl-3-pyridin-4-ylimidazo[1,2-b]pyridazine]	92 to 119 °C
Cc1nc2ccc(N3CCN[C@H](C)C3)nn2c1-c1ccnc(N)c1 [Compound 28, 4-[2-Methyl-6-((R)-3-methylpiperazin-1-yl)imidazo[1,2-b]pyridazin-3-yl]pyridin-2-ylamine]	172 to 177 °C
COc1cc(-c2c(C)nc3ccc(N4CCN[C@@H](C)C4)nn23)ccn1 [Compound 36, 3-(2-Methoxypyridin-4-yl)-2-methyl-6-((S)-3-methylpiperazin-1-yl)imidazo[1,2-b]pyridazine]	106 to 108 °C
Cc1nc2ccc(N3CCN[C@@H](C)C3)nn2c1-c1ccnc(N)c1 [Compound 38, 4-[2-Methyl-6-((S)-3-methylpiperazin-1-yl)imidazo[1,2-b]pyridazin-3-yl]pyridin-2-ylamine]	172 to 177 °C
CN1CCN(c2ccc3nc(C(F)(F)F)c(-c4ccncc4)n3n2)CC1 [Compound 40, 6-(4-Methylpiperazin-1-yl)-3-pyridin-4-yl-2-trifluoromethylimidazo[1,2-b]pyridazine]	182 to 184 °C
CCN1CCN(c2ccc3nc(C)c(-c4ccnc(C)c4)n3n2)CC1 [Compound 43, 6-(4-Ethylpiperazin-1-yl)-2-methyl-3-(2-methylpyridin-4-yl)imidazo[1,2-b]pyridazine]	144 to 146 °C
Cc1cc(-c2c(C)nc3ccc(N4CCN(C(C)C)CC4)nn23)ccn1 [Compound 45, 6-(4-Isopropylpiperazin-1-yl)-2-methyl-3-(2-methylpyridin-4-yl)imidazo[1,2-b]pyridazine]	97 to 99 °C
Cc1nc2ccc(N3CCN(C4CCC4)CC3)nn2c1-c1ccncc1 [Compound 47, 6-(4-Cyclobutylpiperazin-1-yl)-2-methyl-3-pyridin-4-ylimidazo[1,2-b]pyridazine]	122 to 132 °C
Cc1nc2ccc(N3CCN(C4CCC4)CC3)nn2c1-c1ccnc(N)c1 [Compound 48, 4-[6-(4-Cyclobutylpiperazin-1-yl)-2-methylimidazo[1,2-b]pyridazin-3-yl]pyridin-2-ylamine]	132 to 144 °C
Cc1nc2ccc(N3CCNC(C)(C)C3)nn2c1-c1ccnc(CN)c1 [Compound 50, {4-[6-(3,3-Dimethylpiperazin-1-yl)-2-methylimidazo[1,2-b]pyridazin-3-yl]pyridin-2-yl}methylamine]	151 to 156 °C
Cc1cc(-c2c(C)nc3ccc(N4C[C@H]5CCN[C@@H]5C4)nn23)ccn1 [Compound 65, (R,S)-6-(Hexahydropyrrolo[3,4-b]pyrrol-5(1H)-yl)-2-methyl-3-(2-methylpyridin-4-yl)imidazo[1,2-b]pyridazine]	131 to 133 °C
Cc1nc2ccc(N3CC4CNCC4C3)nn2c1-c1ccnc(N)c1 (stereo not shown) [Compound 68, {4-[6-(Hexahydropyrrolo[3,4-c]pyrrol-2(1H)-yl)-2-methylimidazo[1,2-b]pyridazin-3-yl]pyridin-2-yl}amine]	> 155 °C (dec.)
Cc1nc2ccc(N3CC4CN(C(C)C)CC4C3)nn2c1-c1ccnc(N)c1 (stereo not shown) [Compound 73, 4-[6-(−5-Isopropylhexahydropyrrolo[3,4-c]pyrrol-2(1H)-yl)-2-methylimidazo[1,2-b]pyridazin-3-yl]pyridin-2-ylamine]	215 to 218 °C
COc1cc(-c2c(C)nc3ccc(N4CC5CNCC5C4)nn23)ccn1 (stereo not shown) [Compound 74, 6-Hexahydropyrrolo[3,4-c]pyrrol-2(1H)-yl-3-(2-methoxypyridin-4-yl)-2-methylimidazo[1,2-b]-pyridazine]	95 °C
Cc1cc(-c2c(C)nc3ccc(N4CCC5(CC4)CNC5)nn23)ccn1 [Compound 76, 6-(2,7-Diazaspiro[3.5]non-7-yl)-2-methyl-3-(2-methylpyridin-4-yl)imidazo[1,2-b]pyridazine]	117 to 120 °C
Cc1nc2ccc(N3CCC(N4CCCC4)CC3)nn2c1-c1ccncc1 [Compound 82, 2-Methyl-3-pyridin-4-yl-6-(4-pyrrolidin-1-ylpiperidin-1-yl)imidazo[1,2-b]pyridazine]	150 to 153 °C
Cc1cc(-c2c(C)nc3ccc(N4CCC(N5CCCC5)CC4)nn23)ccn1 [Compound 83, 2-Methyl-3-(2-methylpyridin-4-yl)-6-(4-pyrrolidin-1-ylpiperidin-1-yl)imidazo[1,2-b]pyridazine]	124 to 126 °C
Cc1nc2ccc(N3CCC(N4CCCC4)CC3)nn2c1-c1ccnc(N)c1 [Compound 84, 4-[2-Methyl-6-(4-pyrrolidin-1-ylpiperidin-1-yl)imidazo[1,2-b]pyridazin-3-yl]pyridin-2-ylamine]	129 to 138 °C

Continued, values first:

melting point	Compound
120 °C (dec.)	Cc1nc2ccc(N3C[C@@H]4C[C@H]3CN4)nn2c1-c1ccncc1
319 to 321 °C	Cc1nc2ccc(N3CCNCC3)nn2c1-c1ccncc1 (as salt: HCl) [Compound 2, 2-Methyl-6-piperazin-1-yl-3-pyridin-4-yl-imidazo[1,2-b]pyridazine]
305 to 307 °C	CCN1CCN(c2ccc3nc(C)c(-c4ccncc4)n3n2)CC1 (as salt: HCl) [Compound 42, 6-(4-Ethylpiperazin-1-yl)-2-methyl-3-pyridin-4-ylimidazo[1,2-b]pyridazine]
343 to 345 °C	Cc1nc2ccc(N3C[C@@H](C)N[C@@H](C)C3)nn2c1-c1ccncc1 (as salt: HCl) [Compound 54, 6-(cis-3,5-Dimethylpiperazin-1-yl)-2-methyl-3-pyridin-4-ylimidazo[1,2-b]pyridazine]
146 to 148 °C	Cc1nc2ccc(N3CCN[C@H](C)C3)nn2c1-c1ccncc1 [Compound 26, 2-Methyl-6-((R)-3-methylpiperazin-1-yl)-3-pyridin-4-ylimidazo[1,2-b]pyridazine]
157 to 159 °C	Cc1cc(-c2c(C)nc3ccc(N4CCN[C@H](C)C4)nn23)ccn1 [Compound 27, 2-Methyl-6-((R)-3-methylpiperazin-1-yl)-3-(2-methylpyridin-4-yl)imidazo[1,2-b]pyridazine]
146 to 148 °C	Cc1nc2ccc(N3CCN[C@@H](C)C3)nn2c1-c1ccncc1 [Compound 35, 2-Methyl-6-((S)-3-methylpiperazin-1-yl)-3-pyridin-4-ylimidazo[1,2-b]pyridazine]
150 to 152 °C	Cc1nc2ccc(N3CCN(C)CC3)nn2c1-c1ccncc1 [Compound 39, 2-Methyl-6-(4-methylpiperazin-1-yl)-3-pyridin-4-ylimidazo[1,2-b]pyridazine]
237 to 240 °C	Cc1nc2ccc(N3CCNC(CO)C3)nn2c1-c1ccncc1 (stereo not shown) [Compound 41, [4-(2-Methyl-3-pyridin-4-ylimidazo[1,2-b]pyridazin-6-yl)piperazin-2-yl]methanol]
127 to 129 °C	Cc1cc(-c2c(C)nc3ccc(N4C[C@@H](C)N[C@@H](C)C4)nn23)ccn1 [Compound 55, 6-(cis-3,5-Dimethylpiperazin-1-yl)-2-methyl-3-(2-methylpyridin-4-yl)imidazo[1,2-b]pyridazine]
213 to 215 °C	Cc1nc2ccc(N3C[C@@H](C)N[C@@H](C)C3)nn2c1-c1ccnc(N)c1 [Compound 56, 4-[6-(cis-3,5-Dimethylpiperazin-1-yl)-2-methylimidazo[1,2-b]pyridazin-3-yl]pyridin-2-ylamine]
111 to 126 °C	CNc1cc(-c2c(C)nc3ccc(N4C[C@@H](C)N[C@@H](C)C4)nn23)ccn1 [Compound 57, {4-[6-(cis-3,5-Dimethylpiperazin-1-yl)-2-methylimidazo[1,2-b]pyridazin-3-yl]pyridin-2-yl}-methylamine]
172 to 175 °C	Cc1nc2ccc(N3CC4CN(C(C)C)CC4C3)nn2c1-c1ccncc1 (stereo not shown) [Compound 72, 6-(−5-Isopropylhexahydropyrrolo[3,4-c]pyrrol-2(1H)-yl)-2-methyl-3-pyridin-4-ylimidazo[1,2-b]-pyridazine]
130 to 135 °C	Cc1nc2ccc(N3C[C@H]4CCCN[C@@H]4C3)nn2c1-c1ccncc1 [Compound 75, (R,S)-2-Methyl-6-(octahydropyrrolo[3,4-b]pyridin-6-yl)-3-pyridin-4-ylimidazo[1,2-b]-pyridazine]
